# ChEMBL document CHEMBL1152110, “Tetraazaacenaphthene and tetraazaphenalene derivatives: A new class of hepatoprotectants: Part IV” (1995)
# Experiments:
# Type in all cases: functional
# [1] = tested on: Rattus norvegicus; assay: Hepatoprotective activity against thioacetamide-induced toxicity in rats at a dose of 6 mg/Kg dose (p.o. x 7 days), expressed as % protection afforded in glutamate oxaloacetate transaminase (GOT) levels
# [2] = tested on: Rattus norvegicus; assay: Hepatoprotective activity against thioacetamide-induced toxicity in rats at a dose of 6 mg/Kg dose (p.o. x 7 days), expressed as % protection afforded in […] (ALP) levels
# [3] = tested on: Rattus norvegicus; assay: Hepatoprotective activity against thioacetamide-induced toxicity in rats at a dose of 6 mg/Kg dose (p.o. x 7 days), expressed as % protection afforded in serum bilirubin levels
# [4] = tested on: Rattus norvegicus; assay: Hepatoprotective activity against thioacetamide-induced toxicity in rats at a dose of 6 mg/Kg dose (p.o. x 7 days), expressed as % protection afforded in glutamate pyruvate transaminase (GPT) levels
# [5] = tested on: Rattus norvegicus; assay: Hepatoprotective activity against thioacetamide-induced toxicity in rats at a dose of 6 mg/Kg dose (p.o. x 7 days) expressed as % protection afforded in […] (ALP) levels
Compound,Protection [1] [%],Protection [2] [%],Protection [3] [%],Protection [4] [%],Protection [5] [%]
CCO/C(O)=C(\C1=NCCN1)c1nnc(N)s1,33,19,53,51,
CCO/C(O)=C(\C1=NCCCN1)c1nnc(N)s1,26,,22,50,38
O=C1C2C(=O)N(c3ccccc3)C(=S)N3CCN(C(=S)N1c1ccccc1)C23 (stereo unspecified),27,,25,18,20
CC/N=C(/S)N1CCn2c1c(C#N)c(=O)n(CC)c2=S,31,,60,70,56
Cc1ccccc1N1C(=O)C2C(=O)N(c3ccccc3C)C(=O)N3CCN(C1=O)C23 (stereo unspecified),18,,18,15,16
SILYMARIN,50,,61,47,47
CCN1C(=O)C2C(=O)N(CC)C(=S)N3CCN(C1=S)C23 (stereo unspecified),20,,31,34,22
CCN1C(=N)C2C(=O)N(CC)C(=S)N3CCCN(C1=S)C23 (stereo unspecified),40,,50,50,48
CCN1C(=N)C2C(=O)N(CC)C(=S)N3CCN(C1=S)C23 (stereo unspecified),50,,57,87,17
